Measurements reported in patent US20240269106A1, “SMALL MOLECULE MODULATOR TARGETING A RARE HISTONE MODIFICATION REGULATING ADIPOGENESIS AND PHARMACEUTICAL FORMULATION THEREOF” (COUNCIL OF SCIENTIFIC AND INDUSTRIAL RESEARCH AN INDIAN …, priority 2021, published 2024).
Read-outs that look alike come from different tables or passages of the source.

Assays:
[1] = Pharmacokinetic study, oral, serum LC-MS; format: in vivo, SD rats; conditions: for Cl/F_obs / Vz/F_obs / AUC(0-t) / Cmax / Tmax / AUC(0-inf) / MRT inf / half-life: free drug coarse suspension; for AUC(0-t) / Cmax / Tmax / AUC(0-inf) / MRT inf / half-life: Sprague-Dawley (SD); for AUC(0-inf): read-out: AUC 0-inf_obs; for MRT inf: read-out: MRT 0-inf_obs; for half-life: read-out: t½ (converted)
Method: Healthy male SD rats (weighing 200-230 gm) were used for the pharmacokinetic study. The animals were fasted overnight and had free access to water. The animals were divided into six groups with each group having 6 male SD rats (6×6=36) and were orally administered with optimized compound X nano lipid carrier formulation and coarse suspension (free drug) of compound X. All the formulations were administered orally with the help of rat oral feeding tube. The group comprises as follows, GROUP 1: Only vehicle sodium suspension as control/blank. GROUP 2: Compound X optimized NLC formulation by oral delivery (25 mg/kg). GROUP 3: Compound X free drug as coarse suspension by oral delivery (25 mg/kg). GROUP 4: Compound X free drug as coarse suspension by oral delivery (50 mg/kg). GROUP 5: Compound X free drug as coarse suspension by oral delivery (100 mg/kg). GROUP 6: Compound X free drug as coarse suspension by oral delivery (200 mg/kg). Blood samples were withdrawn from retro-orbital venous plexus puncture at time intervals of 0.25, 0.5, 1, 2, 4, 8, 12, 24 and 48 hours. The blood samples were allowed to clot and centrifuged for 15 min at 4500 rpm. The serum was separated and transferred into clean micro centrifuge tubes and stored at −80° C. until further analysis. 50 μl of rat serum was taken from samples and added to extraction solvent 2.5% IPA in n-Hexane (2 mL) containing internal standard (SCTK-14 of 2.5 ng) than Vortexed for 10 minutes, the samples were centrifuged at 4500 rpm and 4° C. for 15 minutes. After centrifugation, samples were stored at −80° C. for 30 minutes, and the supernatant organic layer was transferred and evaporated to dryness in a thermostatically controlled water bath maintained at 30° C. under steam of nitrogen for 30 minutes. After drying the residue was reconstituted by adding 200 microlitres of acetonitrile into pre-labelled vials and vortexed for 20 seconds, and then the samples were injected into the LC-MS system for analysis.
The pharmacokinetic parameters of compound X were calculated by non-compartmental estimations using PK solver 2.0 software.

[2] = test system: C57BL/6J mice maintained on high fat diet; experiment: Standardization of dosage and administration mode, intraperitoneal, high fat diet mice; format: in vivo
Method: Male C57BL/6J mice (8 weeks old) bred in house were obtained and acclimatized for 1 week prior to experiments. Mice were maintained on a 12-hour light/dark cycle at 22+/−3° C. and a relative humidity of 55% and given ad libitum access to food and water. The age-matched C57BL/6J mice were maintained on a standard laboratory chow diet or high fat diet (60 kcal % fat) and water. Two groups were intraperitoneally injected with compound x at two different doses (20 mg/Kg bw and 50 mg/kg bw) twice every week. A third group was injected with equivalent volume of DMSO (for 50 mg/kg bw) as vehicle control. Body weight and food intake was measured twice every week.

[3] = test system: C57BL/6J mice maintained on high fat diet; experiment: Weight gain of mice maintained on high fat diet, compound mixed with diet; format: in vivo; conditions: 50 mg/kg bw mixed with high fat diet
Method: Male C57BL/6J mice (8 weeks old) were obtained and acclimatized for 1 week prior to experiments. Mice were maintained on a 12-hour light/dark cycle at 22+/−3° C. and a relative humidity of 55% and given ad libitum access to food and water. The age-matched C57BL/6J mice were maintained on a standard laboratory chow diet or high fat diet (60 kcal % fat) with or without compound of Formula I (50 mg/kg body weight) and water. Body weight and food intake was measured twice every week.
Trend of weight gaining after 16 weeks of C57BL6/J mice maintained on normal chow diet, high fat diet and high fat diet mixed with compound of Formula I was plotted (FIG. 9) (panel i); n=4 in each group:one-way ANOVA with Dunnett's multiple comparison; * P<0.05, ** P<0.01, *** P<0.001, ns: not significant. Representative images of dissected bodies showing fat accumulation (panel ii) and epididymal fat pads (panel iii) of the mice from three groups. Representative images of morphology of adipose tissue (iv) and liver (v) from the mice of the three groups, as studied by hematoxylin and eosin staining.

[4] = test system: histone butyrylation and acetylation in liver and adipose tissue; experiment: Histone modifications in liver and adipose tissue of high fat diet mice; format: in vivo
Method: Collected liver tissue samples were stored in 4% paraformaldehyde for 24 hours after which they were cryoprotected in 30% sucrose solution for two weeks. Cryosections were performed at 7 μm sections using Cryostat Leica CM1850 UV. For staining, the tissue sections were washed with PBS followed by antigen retrieval with 0.01 M citrate buffer (pH 6). The tissues were then permeabilised with 0.3% Triton X-100/PBS (PBST) and blocked with 2% serum followed by incubation with primary antibodies overnight at 4° C. The next day, secondary antibody incubation was carried out for one hour at room temperature followed by staining of the nuclei with Hoechst 33342 and mounting with 70% glycerol. Images were acquired by confocal microscopy. For quantitation, intensity of each modification specific staining was normalized with respect to the Hoechst staining intensity.
It was observed that H4K5 butyrylation in liver increased upon high fat diet consumption but was inhibited in presence of compound of Formula I (FIG. 10A). […] Acid extraction of histones was performed from the epididymal fat pads of mice using the same protocol as mentioned in example 7. It was observed that H4K5 butyrylation was reduced in the adipocytes of high fat diet fed mice treated with compound of Formula I compared to mice fed with high fat diet only (FIG. 10B).

[5] = male, rat, serum, 25 mg/kg oral
[6] = male, rat, serum, 50 mg/kg oral
[7] = male, rat, serum, 100 mg/kg oral
[8] = male, rat, serum, 200 mg/kg oral

In the case of `COc1ccc(C(=O)C2=C3OC(C)(C)[C@@H](CC=C(C)C)C[C@@]34C[C@@H](CC=C(C)C)C(C)(C)[C@@](CC=C(C)C)(C2=O)C4=O)cc1OC` [Compound X], the “difference in AUC between doses” value ([1]; free compound X at 25, 50, 100 and 200 mg/kg, except at 200 mg/kg) is reported as “no appreciable difference in AUC”, the Cl/F_obs ([1]; 25 mg/kg oral) is reported as 3.338 ± 0.33 mg)/(ng/ml)/h and the Vz/F_obs ([1]; 25 mg/kg oral) is reported as 71.906 ± 29.05 (mg)/(ng/ml). The Cl/F_obs ([1]; 50 mg/kg oral) was 8.071 ± 2.12 mg)/(ng/ml)/h, the Vz/F_obs ([1]; 50 mg/kg oral) was 193.686 ± 112.43 (mg)/(ng/ml) and the Cl/F_obs ([1]; 100 mg/kg oral) was 18.233 ± 4.3 mg)/(ng/ml)/h. The Vz/F_obs ([1]; 100 mg/kg oral) was 346.653 ± 2.6193 (mg)/(ng/ml), the Cl/F_obs ([1]; 200 mg/kg oral) was 10.882 ± 4.58 mg)/(ng/ml)/h and the Vz/F_obs ([1]; 200 mg/kg oral) was 209.737 ± 91.22 (mg)/(ng/ml). It also gave an AUC ([1]; male, SD, rat, serum, oral, free compound X, 200 mg/kg dose) of about 20 ng·h/mL, an AUC(0-t) [1, 5] of 6.56 ± 1.57 ng·h/mL and a Cmax [1, 5] of 0.853 ± 0.09 ng/mL. The Tmax [1, 5] was 4.67 ± 3.05 h, the AUC(0-inf) [1, 5] was 7.54 ± 0.8 ng·h/mL and the MRT inf [1, 5] was 22.2 ± 9.59 h. For the same molecule, the half-life [1, 5] was 14.7 ± 5.07 h, the AUC(0-t) [1, 6] was 4.74 ± 0.1 ng·h/mL and the Cmax [1, 6] was 2.49 ± 0.14 ng/mL. For the same molecule, the Tmax [1, 6] was 0.333 ± 0.14 h, the AUC(0-inf) [1, 6] was 6.49 ± 1.71 ng·h/mL and the MRT inf [1, 6] was 28.4 ± 22.8 h. For the same molecule, the half-life [1, 6] was 18.6 ± 12.2 h, the AUC(0-t) [1, 7] was 5.29 ± 0.99 ng·h/mL and the Cmax [1, 7] was 0.343 ± 0.15 ng/mL. For the same molecule, the Tmax [1, 7] was 0.667 ± 0.28 h, the AUC(0-inf) [1, 7] was 5.74 ± 1.6 ng·h/mL and the MRT inf [1, 7] was 21 ± 3.98 h. It also gave a half-life [1, 7] of 13.8 ± 3.74 h, an AUC(0-t) [1, 8] of 19.1 ± 7.84 ng·h/mL and a Cmax [1, 8] of 2.83 ± 2.16 ng/mL. The Tmax [1, 8] was 2.92 ± 4.4 h, the AUC(0-inf) [1, 8] was 20.6 ± 7.98 ng·h/mL and the MRT inf [1, 8] was 15.7 ± 2.87 h. The half-life [1, 8] was 13.4 ± 4.31 h, the weight gain ([2]; 20 mg/kg bw intraperitoneal twice every week) was “not sufficient for arresting weight gain” and the body weight ([2]; 50 mg/kg bw intraperitoneal twice every week, DMSO vehicle gave almost similar arrest) was “did have an attenuating effect”. For the same molecule, the adipose tissue hypertrophy [3] was “less hypertrophy”, the liver lipid accumulation [3] was “less lipid accumulation” and the weight gain ([3]; 16 weeks) was “prevented weight gain”. The “H4K5 butyrylation in adipocytes” value ([4]; epididymal fat pads, immunoblot) was “reduced”, the “H4K5 butyrylation in liver” value ([4]; immunohistochemistry) was “inhibited” and the “H4K12 and H3K14 acetylation in liver” value ([4]; immunohistochemistry) was “not affected”.
